Active and inactive are the calls of the source.
How the values were obtained:
Streptokinase A = target: T1, Streptokinase A (Streptococcus pyogenes serotype M1, UniProt P10520); test: S. pyogenes streptokinase expression inhibitors, potency, dose response, plasminogen activation absorbance, OD405 (AID 1914); assay type: functional, Streptococcus pyogenes M1 GAS;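 note: secreted streptokinase activity via plasminogen activation per viability signal from cell pellet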
T1 sequence (P10520 whole entry): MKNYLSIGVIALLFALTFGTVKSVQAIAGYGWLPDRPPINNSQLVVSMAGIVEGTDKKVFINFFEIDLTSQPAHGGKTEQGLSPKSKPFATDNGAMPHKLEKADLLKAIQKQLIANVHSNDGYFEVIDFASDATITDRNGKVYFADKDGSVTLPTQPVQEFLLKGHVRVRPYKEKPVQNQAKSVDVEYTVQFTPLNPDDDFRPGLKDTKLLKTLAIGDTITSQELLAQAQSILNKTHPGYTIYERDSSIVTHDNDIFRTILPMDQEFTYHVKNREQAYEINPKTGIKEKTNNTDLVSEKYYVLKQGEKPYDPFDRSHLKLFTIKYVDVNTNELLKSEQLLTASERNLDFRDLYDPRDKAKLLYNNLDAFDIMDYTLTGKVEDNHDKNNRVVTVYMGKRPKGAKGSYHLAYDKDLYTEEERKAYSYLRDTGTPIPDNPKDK

Phospholipase A2 = Phospholipase A2 (Homo sapiens, UniProt P04054); assay type: functional;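 note: confirmatory dose-response counterscreen on phospholipase A2, testing hits that came from an ultra-high-throughput screen for ATG4B inhibitors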
[1] = C. albicans growth with fluconazole, confirmation, fluorescence, retest (AID 2467); assay type: functional, cell-based
Cysteine protease ATG4B = Cysteine protease ATG4B (Homo sapiens, UniProt Q9Y4P1); assay type: functional;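 note: Fluorescence-based dose-response confirmation assay measuring inhibition of ATG4B activity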
[2] = NIH-3T3 fibroblast cytotoxicity, dose response, cytotoxicity control, cell-based, fluorescence, Alamar Blue, secondary assay (AID 2327); assay type: functional;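 note: NIH-3T3 mouse fibroblasts cultured with fluconazole at 8 µg/mL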
Streptococcus = test: Group A Streptococcus viability loss, dose response, counter-screen for streptokinase expression inhibitor project, luminescence, BacTiterGlo (AID 1915); assay type: functional, organism-based;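 note: potency for reduction of bacterial viability or growth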
[3] = system: Streptococcus sp. 'group A'; test: growth inhibition of control SK(-) GAS strain, dose response, counter-screen for streptokinase expression inhibitor project, luminescence, kanamycin, BacTiterGlo, confirmation (AID 1900); assay type: functional, organism-based
[4] = target: T2, Intestinal-type alkaline phosphatase (Homo sapiens, UniProt P09923); test: Dose Response confirmation of uHTS hits from a small molecule inhibitors of human intestinal alkaline phosphatase via a luminescent assay. [Related pubchem assays (depositor defined):AID2544, AID2574]; assay type: functional
[5] = target: G-protein coupled receptor 55 (Homo sapiens, UniProt Q9Y2T6); test: GPR55 agonists via beta-arrestin recruitment, primary screen, imaging, U2OS cells, beta-arrestin-GFP redistribution (AID 1961); assay type: functional
[6] = target: T3, Type-1 angiotensin II receptor (Homo sapiens, UniProt P30556); test: AT1 receptor antagonists, dose response, selectivity assay for APJ receptor antagonist project, cell-based, uHTS hits (AID 463214); assay type: functional;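 note: antagonist potency against angiotensin II stimulated AT1 response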
T3 sequence (P30556 whole entry): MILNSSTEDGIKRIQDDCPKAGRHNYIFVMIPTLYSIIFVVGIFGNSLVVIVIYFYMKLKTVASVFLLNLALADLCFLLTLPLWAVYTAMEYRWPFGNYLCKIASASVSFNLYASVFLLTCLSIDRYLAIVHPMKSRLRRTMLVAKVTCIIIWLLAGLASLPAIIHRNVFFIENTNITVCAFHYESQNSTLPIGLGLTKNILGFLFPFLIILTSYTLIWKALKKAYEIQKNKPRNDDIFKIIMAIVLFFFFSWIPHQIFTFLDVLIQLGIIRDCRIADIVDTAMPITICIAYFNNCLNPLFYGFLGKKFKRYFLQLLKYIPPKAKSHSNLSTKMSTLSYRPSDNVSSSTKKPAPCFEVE

[7] = target: Intestinal-type alkaline phosphatase (Mus musculus, UniProt P24822); test: PubChem AID 488874; assay type: functional
[8] = target: T2, Intestinal-type alkaline phosphatase; test: human IAP inhibitors, dose response, biochemical, luminescent, uHTS hits, set 2 (AID 488793); assay type: functional
[9] = cytotoxicity toward DRD oncogenic fibroblasts, dose response, cell-based, non-viral oncogenic, luminescence (AID 1934); assay type: functional; conditions: Homo sapiens
BJ [10] = test: cytotoxicity toward BJ-TERT fibroblasts, dose response, cell-based, RAS-independent, luminescence (AID 1933); assay type: functional; conditions: Homo sapiens
[11] = target: T4, Alkaline phosphatase, tissue-nonspecific isozyme (Homo sapiens, UniProt P05186); test: inhibition of tissue-nonspecific alkaline phosphatase – biochemical, dose response (AID 488882); assay type: functional
T4 sequence (P05186 whole entry): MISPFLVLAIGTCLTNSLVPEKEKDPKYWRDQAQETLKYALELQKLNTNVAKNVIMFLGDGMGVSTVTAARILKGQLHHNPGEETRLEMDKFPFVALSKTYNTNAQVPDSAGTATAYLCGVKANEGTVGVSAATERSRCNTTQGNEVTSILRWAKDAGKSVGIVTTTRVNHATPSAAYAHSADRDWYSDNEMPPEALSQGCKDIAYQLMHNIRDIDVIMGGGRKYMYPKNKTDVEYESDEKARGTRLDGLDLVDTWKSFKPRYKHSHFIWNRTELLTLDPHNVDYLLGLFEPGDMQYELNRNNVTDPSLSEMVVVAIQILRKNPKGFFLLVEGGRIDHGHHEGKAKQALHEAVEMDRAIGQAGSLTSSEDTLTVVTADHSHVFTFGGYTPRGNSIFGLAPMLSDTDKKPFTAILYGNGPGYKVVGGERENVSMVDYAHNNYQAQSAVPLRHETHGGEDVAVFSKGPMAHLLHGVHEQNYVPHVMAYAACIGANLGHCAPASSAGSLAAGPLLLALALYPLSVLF

BJ [12] = test: cells; assay type: functional, cell-based; conditions: Homo sapiens
Beta-galactosidase = Beta-galactosidase (Escherichia coli, UniProt Q8VNN2); test: PubChem AID 485352; assay type: functional
BJ [13] = test: cytotoxicity toward BJ-TERT-LT-ST fibroblasts, dose response, cell-based, RAS-independent, luminescence (AID 1935); assay type: functional; conditions: Homo sapiens;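 note: BJ fibroblasts immortalized with TERT plus LT and ST oncogenes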
[14] = target: Glyceraldehyde-3-phosphate dehydrogenase (Homo sapiens, UniProt P04406)
[15] = target: T5, Dual specificity protein phosphatase 6 (Rattus norvegicus, UniProt Q64346)
T5 sequence (Q64346 whole entry): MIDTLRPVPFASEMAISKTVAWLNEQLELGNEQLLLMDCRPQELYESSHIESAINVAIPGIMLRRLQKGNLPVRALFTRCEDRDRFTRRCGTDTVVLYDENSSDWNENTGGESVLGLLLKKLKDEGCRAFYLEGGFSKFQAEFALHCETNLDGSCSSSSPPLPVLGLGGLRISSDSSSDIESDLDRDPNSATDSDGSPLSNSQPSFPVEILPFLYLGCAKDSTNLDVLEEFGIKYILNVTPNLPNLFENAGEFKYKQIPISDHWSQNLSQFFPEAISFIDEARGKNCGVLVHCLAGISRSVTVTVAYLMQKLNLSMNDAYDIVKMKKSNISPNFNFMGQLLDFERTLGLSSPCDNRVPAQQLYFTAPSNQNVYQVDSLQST

[16] = target: T5, Dual specificity protein phosphatase 6; assay type: functional
[17] = target: T6, Tyrosine-protein phosphatase non-receptor type 7 (Homo sapiens, UniProt P35236); assay type: functional
T6 sequence (P35236 whole entry): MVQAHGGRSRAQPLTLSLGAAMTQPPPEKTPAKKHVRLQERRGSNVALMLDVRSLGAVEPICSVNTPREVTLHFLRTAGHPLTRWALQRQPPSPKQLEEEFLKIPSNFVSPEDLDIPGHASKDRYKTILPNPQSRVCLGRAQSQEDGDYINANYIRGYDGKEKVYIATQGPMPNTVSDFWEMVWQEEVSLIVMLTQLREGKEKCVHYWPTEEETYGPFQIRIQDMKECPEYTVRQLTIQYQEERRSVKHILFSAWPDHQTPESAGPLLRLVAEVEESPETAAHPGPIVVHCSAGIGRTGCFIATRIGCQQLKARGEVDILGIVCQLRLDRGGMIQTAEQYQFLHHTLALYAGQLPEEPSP

Cytochrome P450 3A4 = Cytochrome P450 3A4 (Homo sapiens, UniProt P08684);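 note: CYP3A4 tested as one member of a cytochrome P450 panel screen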
Cytochrome P450 2C19 = Cytochrome P450 2C19 (Homo sapiens, UniProt P33261); test: Cytochrome panel assay with activity outcomes. Panel member name: p450-cyp2c19 Compounds with AC50 equal or less than 10 uM are considered active; assay type: functional; conditions: read-out: AC50
Beta Lactamase = Beta Lactamase (Pseudomonas aeruginosa, UniProt Q932Y6); test: beta-lactamase reporter inhibitor potency, dose response, artefact control for TLR9-MyD88 binding inhibitor project, BLA reporter cells, FRET fluorescence (AID 588341); assay type: cell-based;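 note: cell based assay in CHO-K1 cells stably expressing beta-lactamase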
CHO = test: cytotoxicity in TLR9-MyD88 CHO cells, dose response, cytotoxicity control for TLR9-MyD88 binding inhibitor project, cell-based, luminescence (AID 588339); assay type: functional, hamster; conditions: Cricetulus griseus;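 note: CHO cells stably coexpressing TLR9 and MyD88 fusions from primary screen; compound exposure lasted 48 hours before viability readout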
[18] = target: UDP-galactopyranose mutase (Mycobacterium tuberculosis, UniProt P9WIQ1); test: Inhibitors of Mycobacterium tuberculosis UDP-galactopyranose mutase (UGM) enzyme Measured in Biochemical System Using Plate Reader - 2105-02_Inhibitor_Dose_CherryPick_Activity. [Related pubchem assays (depositor defined):AID504439]
Keap1/Nrf2 = Keap1/Nrf2 (Homo sapiens, UniProt Q14145); test: Keap1-Nrf2 protein-protein interaction inhibitors, dose response, biochemical, fluorescence polarization, cherry-picked samples (AID 588683)
Cytochrome P450 2D6 = Cytochrome P450 2D6 (Homo sapiens, UniProt P10635);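 note: CYP2D6 member of a cytochrome P450 panel assay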
Melanocortin receptor 4 = Melanocortin receptor 4 (Homo sapiens, UniProt P32245); assay type: functional, cell-based;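 note: Cell-based assay with luminescence read-out, confirmatory dose-response testing for agonist activity of biased ligands at MC4R; human U2OS cells with tagged receptor and beta-arrestin; potency of agonists that increase receptor coupling to beta-arrestin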
HeLa = test: HeLa cell cytotoxicity, dose response, cytotoxicity control, 48 h, plate reader, cherry-picks (AID 504942); assay type: functional, cell-based; conditions: Homo sapiens
[19] = target: Acyl-homoserine lactone acylase PvdQ (Pseudomonas aeruginosa (strain LESB58), UniProt Q9I194); test: P. aeruginosa PvdQ acylase inhibitors, dose response, biochemical, fluorescence, plate reader and imaging, cherry-picks (AID 493231)
[20] = cytotoxicity in HEK-293T NF-kB-Luc cells, dose response, cytotoxicity control for B/T-cell NF-kB inhibitor project, cell-based, uHTS hits (AID 489019); assay type: functional;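 note: IC50 reflects cytotoxicity as loss of cell viability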
Jurkat [21] = test: antigen receptor-induced NF-kB inhibitors, dose response, Jurkat, luciferase reporter, luminescence, B- and T-cell (AID 489004); assay type: functional, cell-based; conditions: Homo sapiens;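 note: NF-kB luciferase reporter Jurkat cells stimulated with PMA plus ionomycin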
Escherichia coli = test: microbe, parasite or virus in culture
Jurkat [22] = test: SAR Analysis of small molecule inhibitors of […] specific antigen receptor-induced NF-kB activation in a Jurkat cell line using a luminescence assay - Set 3. [Related pubchem assays (depositor defined):AID435022, AID435025, AID465]; assay type: functional, cell-based; conditions: Homo sapiens
HEK293 [23] = test: cytotoxicity in HEK293T NF-kB-Luc cells, SAR follow-up, cytotoxicity control for NF-kB activator project, cell-based, resazurin fluorescence (AID 493251); assay type: functional; conditions: Homo sapiens
HEK293 [24] = test: SAR Analysis of small molecule inhibitors of B-cell specific antigen receptor-induced NF-kB activation in a HEK-293T cell line using a luminescence assay - Set 2. [Related pubchem assays (depositor defined):AID435022, AID435025, AID489021]; assay type: functional, cell-based; conditions: Homo sapiens
[25] = target: Dual specificity protein phosphatase 3 (Homo sapiens, UniProt P51452); test: SAR VHR1 Fluorescent Assay for In Vitro dose response studies Set 3. [Related pubchem assays (depositor defined):AID1654, AID1661, AID1878]; assay type: functional
Sequence of Dual specificity protein phosphatase 3 (P51452 whole entry): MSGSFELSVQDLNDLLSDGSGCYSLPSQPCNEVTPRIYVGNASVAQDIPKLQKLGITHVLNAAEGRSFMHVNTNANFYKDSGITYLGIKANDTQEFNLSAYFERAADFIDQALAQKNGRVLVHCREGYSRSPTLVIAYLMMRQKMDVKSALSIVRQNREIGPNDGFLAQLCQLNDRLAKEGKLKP

T2 sequence (P09923 whole entry): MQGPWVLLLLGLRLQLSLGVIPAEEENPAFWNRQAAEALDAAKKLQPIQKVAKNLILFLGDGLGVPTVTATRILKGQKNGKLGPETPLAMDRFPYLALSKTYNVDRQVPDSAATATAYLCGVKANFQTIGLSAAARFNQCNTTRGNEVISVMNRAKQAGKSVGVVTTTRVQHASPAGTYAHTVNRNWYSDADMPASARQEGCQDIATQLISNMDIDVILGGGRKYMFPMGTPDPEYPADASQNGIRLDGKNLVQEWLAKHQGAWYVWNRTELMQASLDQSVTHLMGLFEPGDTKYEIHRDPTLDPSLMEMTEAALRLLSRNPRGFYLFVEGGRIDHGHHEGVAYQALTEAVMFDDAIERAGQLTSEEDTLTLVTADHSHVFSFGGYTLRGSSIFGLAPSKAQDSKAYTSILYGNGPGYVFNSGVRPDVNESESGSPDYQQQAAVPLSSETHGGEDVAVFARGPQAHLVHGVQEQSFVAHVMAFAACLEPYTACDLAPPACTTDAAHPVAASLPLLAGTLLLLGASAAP
Sequence of Cytochrome P450 2C19 (P33261 whole entry): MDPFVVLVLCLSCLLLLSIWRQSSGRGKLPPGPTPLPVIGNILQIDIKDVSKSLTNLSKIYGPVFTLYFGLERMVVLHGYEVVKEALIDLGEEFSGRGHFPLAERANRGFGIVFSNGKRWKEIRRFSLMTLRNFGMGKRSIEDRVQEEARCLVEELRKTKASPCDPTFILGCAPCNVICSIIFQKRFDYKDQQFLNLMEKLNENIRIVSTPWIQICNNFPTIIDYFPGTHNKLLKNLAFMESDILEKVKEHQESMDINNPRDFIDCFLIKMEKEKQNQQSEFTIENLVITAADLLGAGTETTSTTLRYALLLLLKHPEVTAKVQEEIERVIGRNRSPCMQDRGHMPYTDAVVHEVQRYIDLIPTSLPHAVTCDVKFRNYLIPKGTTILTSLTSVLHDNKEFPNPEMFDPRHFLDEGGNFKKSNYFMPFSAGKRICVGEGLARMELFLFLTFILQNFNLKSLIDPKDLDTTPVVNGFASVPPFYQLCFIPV
Sequence of Beta-galactosidase (Q8VNN2 whole entry): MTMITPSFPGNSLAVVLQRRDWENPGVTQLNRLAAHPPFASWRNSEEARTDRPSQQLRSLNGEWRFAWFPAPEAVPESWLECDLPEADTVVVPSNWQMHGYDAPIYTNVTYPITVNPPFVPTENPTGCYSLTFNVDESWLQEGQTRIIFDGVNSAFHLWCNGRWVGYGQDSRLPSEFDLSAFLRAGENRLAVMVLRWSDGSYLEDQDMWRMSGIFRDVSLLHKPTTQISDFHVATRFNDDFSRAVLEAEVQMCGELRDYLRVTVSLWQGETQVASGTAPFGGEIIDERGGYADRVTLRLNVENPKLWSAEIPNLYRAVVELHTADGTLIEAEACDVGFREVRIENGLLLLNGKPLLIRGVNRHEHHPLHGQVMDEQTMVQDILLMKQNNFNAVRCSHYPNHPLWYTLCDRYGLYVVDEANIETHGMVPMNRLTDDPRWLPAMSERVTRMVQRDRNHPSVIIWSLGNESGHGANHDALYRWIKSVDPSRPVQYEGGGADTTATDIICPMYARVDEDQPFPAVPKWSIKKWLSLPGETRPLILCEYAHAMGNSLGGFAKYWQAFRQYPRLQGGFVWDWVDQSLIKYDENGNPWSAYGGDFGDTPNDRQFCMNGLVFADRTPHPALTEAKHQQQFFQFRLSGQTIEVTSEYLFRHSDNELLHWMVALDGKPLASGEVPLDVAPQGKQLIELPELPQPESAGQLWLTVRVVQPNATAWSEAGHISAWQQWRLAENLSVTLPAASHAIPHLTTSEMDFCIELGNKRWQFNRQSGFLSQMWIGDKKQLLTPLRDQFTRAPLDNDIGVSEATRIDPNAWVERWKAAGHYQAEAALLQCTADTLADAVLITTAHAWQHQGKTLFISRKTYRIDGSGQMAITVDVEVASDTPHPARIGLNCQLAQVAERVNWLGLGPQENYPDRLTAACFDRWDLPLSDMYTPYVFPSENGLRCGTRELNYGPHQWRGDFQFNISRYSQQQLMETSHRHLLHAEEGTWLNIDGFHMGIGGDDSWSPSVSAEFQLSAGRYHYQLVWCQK
Sequence of Cytochrome P450 2D6 (P10635 whole entry): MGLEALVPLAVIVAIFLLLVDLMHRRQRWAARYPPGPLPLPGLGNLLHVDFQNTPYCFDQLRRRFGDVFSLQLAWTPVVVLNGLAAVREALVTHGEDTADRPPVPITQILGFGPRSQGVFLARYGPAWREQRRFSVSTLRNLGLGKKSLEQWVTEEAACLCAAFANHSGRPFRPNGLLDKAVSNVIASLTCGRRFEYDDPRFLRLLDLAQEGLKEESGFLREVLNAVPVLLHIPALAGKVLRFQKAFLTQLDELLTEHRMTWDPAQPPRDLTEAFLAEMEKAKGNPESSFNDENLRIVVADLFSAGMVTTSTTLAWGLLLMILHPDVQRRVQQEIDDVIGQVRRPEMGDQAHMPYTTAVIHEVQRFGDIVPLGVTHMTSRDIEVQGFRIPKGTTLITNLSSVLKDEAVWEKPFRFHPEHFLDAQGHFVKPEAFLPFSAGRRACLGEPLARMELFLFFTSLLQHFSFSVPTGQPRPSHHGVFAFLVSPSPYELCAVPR
Sequence of Cysteine protease ATG4B (Q9Y4P1 whole entry): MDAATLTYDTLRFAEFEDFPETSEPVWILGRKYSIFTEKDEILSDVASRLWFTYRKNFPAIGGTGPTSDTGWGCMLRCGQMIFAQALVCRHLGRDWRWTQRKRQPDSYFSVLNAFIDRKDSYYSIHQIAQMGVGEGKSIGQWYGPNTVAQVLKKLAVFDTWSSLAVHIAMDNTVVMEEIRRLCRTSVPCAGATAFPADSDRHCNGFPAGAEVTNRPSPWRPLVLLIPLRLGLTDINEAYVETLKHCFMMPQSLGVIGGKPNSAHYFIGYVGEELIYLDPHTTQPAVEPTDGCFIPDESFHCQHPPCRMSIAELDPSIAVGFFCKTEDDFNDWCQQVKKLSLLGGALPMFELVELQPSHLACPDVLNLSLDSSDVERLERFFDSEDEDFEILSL
Sequence of UDP-galactopyranose mutase (P9WIQ1 whole entry): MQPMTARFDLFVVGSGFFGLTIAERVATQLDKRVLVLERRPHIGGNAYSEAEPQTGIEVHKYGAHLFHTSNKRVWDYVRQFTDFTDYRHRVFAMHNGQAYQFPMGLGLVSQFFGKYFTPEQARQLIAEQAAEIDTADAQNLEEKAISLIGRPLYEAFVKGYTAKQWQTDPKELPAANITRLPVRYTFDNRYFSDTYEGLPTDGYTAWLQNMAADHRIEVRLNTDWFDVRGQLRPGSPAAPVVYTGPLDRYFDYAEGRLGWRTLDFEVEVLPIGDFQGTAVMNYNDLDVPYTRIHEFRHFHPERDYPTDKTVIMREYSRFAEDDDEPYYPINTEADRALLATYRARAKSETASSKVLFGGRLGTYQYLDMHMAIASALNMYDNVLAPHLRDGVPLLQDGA
Sequence of Intestinal-type alkaline phosphatase (Mus musculus, UniProt P24822) (P24822 whole entry): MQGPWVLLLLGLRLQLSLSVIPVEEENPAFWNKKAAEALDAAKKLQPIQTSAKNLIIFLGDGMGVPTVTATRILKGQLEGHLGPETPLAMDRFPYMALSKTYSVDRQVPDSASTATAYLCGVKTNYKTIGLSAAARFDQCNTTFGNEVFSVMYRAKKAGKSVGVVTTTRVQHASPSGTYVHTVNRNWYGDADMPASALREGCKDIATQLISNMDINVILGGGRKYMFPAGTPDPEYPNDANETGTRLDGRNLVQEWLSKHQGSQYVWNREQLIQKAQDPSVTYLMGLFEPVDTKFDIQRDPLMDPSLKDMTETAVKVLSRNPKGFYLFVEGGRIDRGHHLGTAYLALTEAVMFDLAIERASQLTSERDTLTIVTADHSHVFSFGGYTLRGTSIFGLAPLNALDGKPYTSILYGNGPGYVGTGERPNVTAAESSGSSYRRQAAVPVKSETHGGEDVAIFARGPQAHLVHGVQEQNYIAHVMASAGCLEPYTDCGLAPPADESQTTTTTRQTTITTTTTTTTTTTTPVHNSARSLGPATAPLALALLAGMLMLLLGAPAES
Sequence of Phospholipase A2 (P04054 whole entry): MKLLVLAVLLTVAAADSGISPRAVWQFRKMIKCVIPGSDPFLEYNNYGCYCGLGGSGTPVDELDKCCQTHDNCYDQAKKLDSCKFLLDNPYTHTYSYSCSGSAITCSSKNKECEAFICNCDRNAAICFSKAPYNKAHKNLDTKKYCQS
Sequence of Glyceraldehyde-3-phosphate dehydrogenase (P04406 whole entry): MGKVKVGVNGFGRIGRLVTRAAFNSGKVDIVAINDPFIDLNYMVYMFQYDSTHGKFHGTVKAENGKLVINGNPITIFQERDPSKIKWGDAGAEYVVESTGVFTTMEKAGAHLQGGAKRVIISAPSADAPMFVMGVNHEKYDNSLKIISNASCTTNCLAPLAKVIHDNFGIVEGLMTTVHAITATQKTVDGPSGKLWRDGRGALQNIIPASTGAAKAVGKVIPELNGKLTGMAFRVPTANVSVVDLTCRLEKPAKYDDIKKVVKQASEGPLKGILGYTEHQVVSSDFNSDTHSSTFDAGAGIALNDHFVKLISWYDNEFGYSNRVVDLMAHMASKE
Sequence of G-protein coupled receptor 55 (Q9Y2T6 whole entry): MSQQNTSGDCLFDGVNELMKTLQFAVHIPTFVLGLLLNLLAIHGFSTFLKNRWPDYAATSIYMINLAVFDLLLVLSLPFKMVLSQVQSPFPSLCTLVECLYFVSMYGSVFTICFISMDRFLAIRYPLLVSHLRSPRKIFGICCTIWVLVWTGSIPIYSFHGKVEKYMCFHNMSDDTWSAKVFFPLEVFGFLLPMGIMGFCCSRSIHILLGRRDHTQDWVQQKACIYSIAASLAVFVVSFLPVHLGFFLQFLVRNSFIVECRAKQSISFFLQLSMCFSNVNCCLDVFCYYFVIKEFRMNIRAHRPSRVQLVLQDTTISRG

With O=C1NC(=O)/C(=C/c2ccccc2Oc2ccc(Cl)cc2)S1 the EC50 (Streptokinase A) was > 50 µM (not active), the IC50 (Phospholipase A2) was 13.9 µM (active) and the EC50 [1] was 5.01 µM (active). For the same molecule, the IC50 (Cysteine protease ATG4B) was 9.09 µM (active), the EC50 [2] was > 160 µM (inactive) and the EC50 (Streptococcus) was 7.13 µM (active). For the same molecule, the EC50 [3] was 7.87 µM (active).
With C=CCN1C(=O)/C(=C\C=C2\N(C)c3ccccc3C2(C)C)SC1=S the IC50 [4] was 15.9 µM (inactive), the EC50 [5] was > 32 µM (inactive) and the IC50 [6] was > 40 µM (not active). For the same molecule, the IC50 [7] was 33.4 µM (active), the IC50 [8] was 11 µM (active) and the EC50 [9] was > 150 µM (not active). The EC50 (BJ [10]) was > 150 µM (not active), the IC50 [11] was 8.19 µM (active) and the EC50 (BJ [12]) was 42.9 µM (active). For the same molecule, the EC50 (Beta-galactosidase) was > 40 µM (inactive) and the EC50 (BJ [13]) was > 150 µM (not active).
For Cc1ccc(O)c2c1C1C=CCC1C(C(=O)O)N2 (stereo not given), the IC50 [14] was > 100 µM (not active), the IC50 [15] was > 100 µM (inactive) and the IC50 [16] was 86.4 µM (active). The IC50 [17] was 2.63 µM (active).
With O=C(OC1CCN(c2ccc([N+](=O)[O-])cc2)CC1)c1ccccc1 the AC50 (Cytochrome P450 3A4) was “inconclusive” and the AC50 (Cytochrome P450 2C19) was 0.794 µM (inconclusive).
With O=C(NCc1cccc(F)c1)c1cccc2c1C(=O)c1ccc(N3CCC(Cc4ccccc4)CC3)cc1S2(=O)=O the IC50 (Beta Lactamase) was 3.21 µM (active), the IC50 (CHO) was > 49.8 µM (inactive) and the AC50 [18] was 5.93 µM (active).
With CCCCOc1nc2nc(-c3ccco3)n(Cc3ccco3)c(N)c-2c1C#N the AC50 (Keap1/Nrf2) was > 52 µM (inactive).
With NC(=O)CC(c1ccccc1)c1ccco1 (stereo not given) the AC50 (Cytochrome P450 2C19) was 28.2 µM (inconclusive) and the AC50 (Cytochrome P450 2D6) was “inconclusive”.
For Cc1ccc(O)c(C(=O)/C=C/c2ccc3c(c2)OCCO3)c1, the EC50 (Melanocortin receptor 4) was > 89.2 µM (inactive), the AC50 (HeLa) was 73.2 µM (active) and the AC50 [19] was 1.14 µM (active).
With CC(=O)OC(C)(C)/C=C/C(=O)[C@](C)(O)C1[C@H](O)C[C@@]2(C)C3CC=C4C(C[C@H](O)C(=O)C4(C)C)[C@]3(C)C(=O)C[C@]12C (stereo not given in full) the IC50 [20] was > 80 µM (inactive) and the IC50 (Jurkat [21]) was 3.03 µM (active).
In the case of Cc1c(Cl)cccc1NC(=O)C1NC(=O)CC1c1ccccc1 (stereo not given), the AC50 (Escherichia coli) is reported as 27.6 µM (active).
For CNC(=O)CCc1nc(-c2ccc(C)cc2)no1, the IC50 (Jurkat [22]) was > 80 µM (inactive), the IC50 (HEK293 [23]) was > 80 µM (inactive) and the IC50 (HEK293 [24]) was > 80 µM (inactive).
In the case of COc1ccc(-c2nnc(Nc3nc4ccc(SC)cc4s3)o2)cc1, the IC50 [25] is reported as 15.4 µM (active).

From ChEMBL document CHEMBL1201862, “PubChem BioAssay data set” (2004)
